Experimental data: patent US9801372B2, “Polymers for increasing the soil mobility of low-solubility insecticides” (BASF SE, priority 2009, dated 2017)

Experimental: First, a calibration with the active ingredient to be determined is performed at a suitable wavelength in different concentrations. To study the solubilization with a polymeric solubilizer, a 1% by weight polymer solution is prepared and the UV absorption is measured at said wavelength. The polymer solution is saturated with the active ingredient to be analyzed and equilibrated for 24 h. After centrifugation of the solution and UV analysis of the supernatant at said wavelength, after subtracting the polymer absorption over the calibration curve, the dissolved active ingredient concentration can be concluded.
The fipronil concentration was determined by means of UV spectroscopy at 278 nm; to this end, the absorption of the polymer (1% by weight in water) was first determined alone. Subsequently, an excess of fipronil was added and the mixture was stirred at room temperature overnight. The centrifuged solution was analyzed once again at 278 nm in the UV instrument. After subtracting the appropriate solubilizer spectrum and comparing by means of a fipronil calibration curve produced beforehand, it was possible to determine the concentration of dissolved fipronil.

| Molecule | Fipronil solubility in ppm [ppm] |
| --- | --- |
| Triton X-100 | 13 |
| N#Cc1nn(-c2c(Cl)cc(C(F)(F)F)cc2Cl)c(N)c1[S+]([O-])C(F)(F)F (centres unmarked) [Fipronil] | 2.2 |
